Read-outs that look alike come from different tables or passages of the source.
What was measured:
[1] = target: T1, ALK (Homo sapiens, UniProt Q9UM73); test: ALK Kinase Assay (ELISA/TRF, PLC-γ substrate); format: biochemical; conditions: read-out: ALK Potency
T1 construct: host or cells: baculovirus expression system
Outline: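 IC50 values derive from percent inhibition plotted against log10 compound concentration and fitted to a variable-slope sigmoidal equation. The underlying reaction used 30 ng/ml ALK acting on immobilized PLC-γ (10 μg/mL in TBS) at 37° C for 15 minutes, read with Eu-N1 PT66 antibody.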

[2] = target: T2, JAK2 (Homo sapiens, UniProt O60674); test: Recombinant Human JAK2 Kinase Assay (TRF); format: biochemical; conditions: read-out: JAK2 Potency
T2 construct: host or cells: baculovirus expression system
T2 sequence (O60674 whole entry): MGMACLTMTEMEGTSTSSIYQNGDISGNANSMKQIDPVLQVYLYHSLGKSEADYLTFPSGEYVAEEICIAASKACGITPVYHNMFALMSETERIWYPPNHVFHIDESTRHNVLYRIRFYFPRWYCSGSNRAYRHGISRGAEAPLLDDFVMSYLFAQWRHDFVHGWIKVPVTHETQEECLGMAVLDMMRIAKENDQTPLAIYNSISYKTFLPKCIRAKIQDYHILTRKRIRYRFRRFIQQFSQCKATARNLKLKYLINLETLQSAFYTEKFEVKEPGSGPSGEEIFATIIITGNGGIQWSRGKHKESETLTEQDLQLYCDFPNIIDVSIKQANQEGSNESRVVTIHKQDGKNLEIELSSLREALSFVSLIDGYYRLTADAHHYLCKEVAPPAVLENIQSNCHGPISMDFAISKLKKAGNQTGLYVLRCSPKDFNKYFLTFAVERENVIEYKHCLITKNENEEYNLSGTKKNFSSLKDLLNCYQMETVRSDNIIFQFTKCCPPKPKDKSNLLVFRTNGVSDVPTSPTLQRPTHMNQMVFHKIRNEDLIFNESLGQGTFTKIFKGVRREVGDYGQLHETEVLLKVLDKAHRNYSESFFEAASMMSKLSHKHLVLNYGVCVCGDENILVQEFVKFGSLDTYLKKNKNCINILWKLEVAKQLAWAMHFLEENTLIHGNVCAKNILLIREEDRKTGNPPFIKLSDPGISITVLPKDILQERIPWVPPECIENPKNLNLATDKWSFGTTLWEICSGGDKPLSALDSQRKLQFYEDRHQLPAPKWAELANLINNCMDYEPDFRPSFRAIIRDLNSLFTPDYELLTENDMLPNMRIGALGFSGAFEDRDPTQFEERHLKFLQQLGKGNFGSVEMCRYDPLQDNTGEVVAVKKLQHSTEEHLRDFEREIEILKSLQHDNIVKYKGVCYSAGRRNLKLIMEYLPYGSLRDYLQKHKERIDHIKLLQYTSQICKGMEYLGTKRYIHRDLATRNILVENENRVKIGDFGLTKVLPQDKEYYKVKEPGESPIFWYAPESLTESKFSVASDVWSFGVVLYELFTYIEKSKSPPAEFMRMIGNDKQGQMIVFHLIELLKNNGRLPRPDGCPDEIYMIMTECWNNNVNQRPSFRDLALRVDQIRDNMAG
Outline: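 Baculovirus-expressed JAK2 (15 ng/ml) phosphorylated a biotinylated 15-mer peptide captured on Neutravidin, in 20 mM HEPES pH 7.2, 0.2 μM ATP, 1 mM MnCl2, 0.1% BSA, 2.5% DMSO final, 20 min at room temperature. Phosphoproduct detected by time-resolved fluorescence with Eu-N1-labelled PY100 antibody.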

[3] = ALK kinase inhibition, 1 μM ATP
[4] = JAK2 kinase inhibition, 0.2 μM ATP

T1 sequence (Q9UM73 19-1620): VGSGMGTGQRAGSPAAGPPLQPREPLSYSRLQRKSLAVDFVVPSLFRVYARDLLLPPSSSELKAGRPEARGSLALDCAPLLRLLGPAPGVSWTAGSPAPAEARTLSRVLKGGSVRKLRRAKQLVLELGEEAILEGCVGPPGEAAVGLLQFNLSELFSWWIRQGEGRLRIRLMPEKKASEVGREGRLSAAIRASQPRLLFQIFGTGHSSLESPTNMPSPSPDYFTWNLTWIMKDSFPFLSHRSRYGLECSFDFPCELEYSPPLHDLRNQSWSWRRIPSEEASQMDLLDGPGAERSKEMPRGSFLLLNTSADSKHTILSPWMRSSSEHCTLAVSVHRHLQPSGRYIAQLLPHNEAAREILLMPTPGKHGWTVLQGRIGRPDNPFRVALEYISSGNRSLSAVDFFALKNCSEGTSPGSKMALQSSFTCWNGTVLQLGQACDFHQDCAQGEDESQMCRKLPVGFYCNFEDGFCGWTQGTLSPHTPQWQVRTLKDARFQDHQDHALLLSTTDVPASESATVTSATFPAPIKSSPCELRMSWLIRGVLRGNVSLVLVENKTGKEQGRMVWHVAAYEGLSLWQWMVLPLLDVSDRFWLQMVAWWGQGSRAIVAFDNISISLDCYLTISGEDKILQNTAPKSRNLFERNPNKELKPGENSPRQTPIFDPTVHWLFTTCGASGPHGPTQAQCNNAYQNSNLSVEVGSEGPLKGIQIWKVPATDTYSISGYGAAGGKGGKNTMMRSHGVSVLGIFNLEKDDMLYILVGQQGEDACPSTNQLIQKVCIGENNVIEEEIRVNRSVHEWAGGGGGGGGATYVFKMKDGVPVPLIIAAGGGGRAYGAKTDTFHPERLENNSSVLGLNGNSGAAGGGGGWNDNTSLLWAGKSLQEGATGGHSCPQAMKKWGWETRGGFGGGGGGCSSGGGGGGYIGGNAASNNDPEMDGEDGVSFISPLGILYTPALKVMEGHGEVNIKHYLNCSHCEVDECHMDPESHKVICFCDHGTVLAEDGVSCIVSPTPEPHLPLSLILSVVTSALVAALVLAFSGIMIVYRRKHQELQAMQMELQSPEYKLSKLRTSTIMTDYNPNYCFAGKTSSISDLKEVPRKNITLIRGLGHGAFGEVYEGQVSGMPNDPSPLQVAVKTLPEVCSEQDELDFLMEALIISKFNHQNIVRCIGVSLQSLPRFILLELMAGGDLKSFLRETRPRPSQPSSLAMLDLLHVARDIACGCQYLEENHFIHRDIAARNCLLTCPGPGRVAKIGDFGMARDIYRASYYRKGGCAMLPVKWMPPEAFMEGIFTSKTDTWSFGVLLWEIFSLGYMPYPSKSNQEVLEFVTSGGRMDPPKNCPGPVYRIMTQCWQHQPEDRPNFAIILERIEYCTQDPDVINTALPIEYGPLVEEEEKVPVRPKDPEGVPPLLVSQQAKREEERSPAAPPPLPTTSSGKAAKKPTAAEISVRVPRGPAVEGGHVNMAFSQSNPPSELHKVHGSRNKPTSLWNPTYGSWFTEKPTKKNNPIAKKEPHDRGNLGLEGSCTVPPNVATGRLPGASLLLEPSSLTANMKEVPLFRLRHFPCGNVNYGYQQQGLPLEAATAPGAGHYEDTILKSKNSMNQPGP

Row | SMILES | IC50 [1, 3] [nM] | IC50 [2, 4] [nM] | IC50 ([1]; ALK Kinase Inhibition) [nM] | IC50 ([2]; JAK2 Kinase Inhibition) [nM]
1 | CC(C)(C)NS(=O)(=O)c1cccc(-c2ccc3cnc(Nc4ccc(C5CCC(N6CCCC6)CC5)cc4)nn23)c1 (centres unmarked) [Example 566, N-tert-Butyl-3-{2-[4-(4-pyrrolidin-1-yl-cyclohexyl)-phenylamino]-pyrrolo[2,1-f][1,2,4]triazin-7-yl}-benzenesulfonamide] | 100 to 1000 | < 100 | – | –
2 | COc1cc(N2CCN(C[C@H](C)O)CC2)ccc1Nc1ncc2ccc(-c3c(OC)cccc3OC)n2n1 [Example 543, (S)-1-(4-{4-[7-(2,6-Dimethoxy-phenyl)-pyrrolo[2,1-f][1,2,4]triazin-2-ylamino]-3-methoxy-phenyl}-piperazin-1-yl)-propan-2-ol] | < 100 | 1000 to 10000 | – | –
3 | C=Cc1cc(-c2ccccc2OC)n2nc(Nc3ccc(N4CCN(C)CC4)cc3)ncc12 [Example 103, [7-(2-Methoxy-phenyl)-5-vinyl-pyrrolo[2,1-f][1,2,4]triazin-2-yl]-[4-(4-methyl-piperazin-1-yl)-phenyl]-amine] | – | – | 100 to 1000 | < 100
4 | COc1cc(C2(C#N)CCC(N3CCOCC3)CC2)ccc1Nc1ncc2ccc(-c3ccccc3OC)n2n1 (stereo not drawn) [Example 1246, trans-1-[3-methoxy-4-[[7-(2-methoxyphenyl)pyrrolo[2,1-f][1,2,4]triazin-2-yl]amino]phenyl]-4-morpholino-cyclohexanecarbonitrile] | < 100 | 100 to 1000 | – | –
5 | CN1CCN(c2cccc(Nc3ncc4ccc(-c5cnn(CC(N)=O)c5)n4n3)c2)CC1 [Example 978, 2-(4-{2-[3-(4-Methyl-piperazin-1-yl)-phenylamino]-pyrrolo[2,1-f][1,2,4]triazin-7-yl}-pyrazol-1-yl)-acetamide] | 100 to 1000 | < 100 | – | –
6 | CS(=O)(=O)c1cccc(-c2ccc3cnc(Nc4ccc(N5CCN(CCO)CC5)cc4)nn23)c1 [Example 95, 2-(4-{4-[7-(3-Methanesulfonyl-phenyl)-pyrrolo[2,1-f][1,2,4]triazin-2-ylamino]-phenyl}-piperazin-1-yl)-ethanol] | – | – | 100 to 1000 | < 100
7 | CC(=O)Nc1cccc(Nc2ncc3ccc(-c4cccc(N5CCCS5(=O)=O)c4)n3n2)c1 [Example 1508, N-[3-({7-[3-(1,1-Dioxido-1,2-thiazolidin-2-yl)phenyl]pyrrolo[2,1-f][1,2,4]triazin-2-yl}amino)phenyl]acetamide] | – | – | 1000 to 10000 | < 100
8 | CS(=O)(=O)c1ccc(-c2ccc3cnc(-n4cnc5cnccc54)nn23)cc1 [Example 330, 1-[7-(4-Methanesulfonyl-phenyl)-pyrrolo[2,1-f][1,2,4]triazin-2-yl]-1H-imidazo[4,5-c]pyridine] | – | – | 1000 to 10000 | 1000 to 10000
9 | COc1ccc(-c2ccc3cnc(Nc4ccc(C5CC6CCC(C5)N6C)cc4)nn23)cn1 (centres unmarked) [Example 944, [7-(6-Methoxy-pyridin-3-yl)-pyrrolo[2,1-f][1,2,4]triazin-2-yl]-[4-(8-methyl-8-aza-bicyclo[3.2.1]oct-3-yl)-phenyl]-amine] | 100 to 1000 | < 100 | – | –
10 | COc1ccc(-c2ccc3cnc(Nc4ccc(C5=CCN(CC(N)=O)CC5)c(C(F)(F)F)c4)nn23)cn1 [Example 953, 2-(4-{4-[7-(6-Methoxy-pyridin-3-yl)-pyrrolo[2,1-f][1,2,4]triazin-2-ylamino]-2-trifluoromethyl-phenyl}-3,6-dihydro-2H-pyridin-1-yl)-acetamide] | 1000 to 10000 | < 100 | – | –
11 | COc1ccc(-c2ccc3cnc(Nc4ccc(C5CCN(C)CC5)c(C)c4)nn23)cn1 [Example 941, [7-(6-Methoxy-pyridin-3-yl)-pyrrolo[2,1-f][1,2,4]triazin-2-yl]-[3-methyl-4-(1-methyl-piperidin-4-yl)-phenyl]-amine] | < 100 | < 100 | – | –
12 | CN1CCN(c2ccc(Nc3ncc4ccc(-c5ccc(N)nc5)n4n3)cc2)CC1 [Example 1118, [7-(6-Amino-pyridin-3-yl)-pyrrolo[2,1-f][1,2,4]triazin-2-yl]-[4-(4-methyl-piperazin-1-yl)-phenyl]-amine] | 100 to 1000 | < 100 | – | –

Now from value to compound:

Row | IC50 [1, 3] [nM] | IC50 [2, 4] [nM] | IC50 ([1]; ALK Kinase Inhibition) [nM] | IC50 ([2]; JAK2 Kinase Inhibition) [nM] | SMILES
13 | 100 to 1000 | < 100 | – | – | CN(c1ccccc1-c1ccc2cnc(Nc3ccc4[nH]ncc4c3)nn12)S(C)(=O)=O [Example 1338, N-{2-[2-(1H-Indazol-5-ylamino)-pyrrolo[2,1-f][1,2,4]triazin-7-yl]-phenyl}-N-methyl-methanesulfonamide]
14 | < 100 | < 100 | – | – | COc1ccccc1-c1ccc2cnc(Nc3ccc(C4CCN(C)CC4)cc3)nn12 [Example 1132, [7-(2-Methoxy-phenyl)-pyrrolo[2,1-f][1,2,4]triazin-2-yl]-[4-(1-methyl-piperidin-4-yl)-phenyl]-amine]
15 | – | – | 100 to 1000 | < 100 | CC(C)(C)NS(=O)(=O)c1cccc(-c2ccc3cnc(Nc4ccc(N5CCOCC5)c(F)c4)nn23)c1 [Example 1395, N-tert-Butyl-3-[2-(3-fluoro-4-morpholin-4-yl-phenylamino)-pyrrolo[2,1-f][1,2,4]triazin-7-yl]-benzenesulfonamide]
16 | – | – | < 100 | 100 to 1000 | COc1cc(N2CCC(C(=O)N3CCN(C)CC3)CC2)ccc1Nc1ncc2ccc(-c3ccccc3N(C)S(C)(=O)=O)n2n1 [Example 459, N-[2-(2-{2-Methoxy-4-[4-(4-methyl-piperazine-1-carbonyl)-piperidin1-yl]-phenylamino}-pyrrolo[2,1-f][1,2,4]triazin-7-yl)-phenyl]-N-methyl-methanesulfonamide]
17 | – | – | 100 to 1000 | 100 to 1000 | COCCN(c1ccccc1-c1ccc2cnc(Nc3ccc(N4CCC(N5CCOCC5)CC4)cc3OC)nn12)S(C)(=O)=O [Example 1462, N-(2-Methoxy-ethyl)-N-(2-{2-[2-methoxy-4-(4-morpholin-4-yl-piperidin-1-yl)-phenylamino]-pyrrolo[2,1-f][1,2,4]triazin-7-yl}-phenyl)-methanesulfonamide]
18 | – | – | 100 to 1000 | < 100 | CN(c1ccccc1-c1ccc2cnc(Nc3ccc4c(c3)NC(=O)C(C)(C)O4)nn12)S(C)(=O)=O [Example 1371, N-{2-[2-(2,2-Dimethyl-3-oxo-3,4-dihydro-2H-1,4-benzoxazin-6-ylamino)-pyrrolo[2,1-f][1,2,4]triazin-7-yl]-phenyl}-N-methyl-methanesulfonamide]
19 | – | – | 100 to 1000 | 100 to 1000 | COc1cc(N2CCN(C)CC2)ccc1Nc1ncc2ccc(-c3cc(S(=O)(=O)N(C)C)ccc3C)n2n1 [Example 75, 3-{2-[2-Methoxy-4-(4-methyl-piperazin-1-yl)-phenylamino]-pyrrolo[2,1-f][1,2,4]triazin-7-yl}-4,N,N-trimethyl-benzenesulfonamide]
20 | < 100 | 1000 to 10000 | – | – | COc1cc(C2CCN(CC3CCN3C)CC2)ccc1Nc1ncc2ccc(-c3ccccc3N(C)S(C)(=O)=O)n2n1 (racemic) [Example 871, (±)-N-[2-(2-{2-Methoxy-4-[1-(1-methyl-azetidin-2-ylmethyl)-piperidin-4-yl]-phenylamino}-pyrrolo[2,1-f][1,2,4]triazin-7-yl)-phenyl]-N-methyl-methanesulfonamide]
21 | > 10000 | < 100 | – | – | CC(C)(C)NS(=O)(=O)c1cccc(-c2ccc3cnc(Nc4ccc(-c5cccnc5)cc4)nn23)c1 [Example 1085, N-tert-Butyl-3-[2-(4-pyridin-3-yl-phenylamino)-pyrrolo[2,1-f][1,2,4]triazin-7-yl]-benzenesulfonamide]
22 | 1000 to 10000 | 1000 to 10000 | – | – | COc1cc(C2CCN(CC(N)=O)CC2)ccc1Nc1ncc2cc(C)c(-c3ccccc3N(C)S(C)(=O)=O)n2n1 [Example 515, 2-[4-(4-{7-[2-(Methanesulfonyl-methyl-amino)-phenyl]-6-methyl-pyrrolo[2,1-f][1,2,4]triazin-2-ylamino}-3-methoxy-phenyl)-piperidin-1-yl]-acetamide]
23 | – | – | 1000 to 10000 | < 100 | CN1C(=O)Cc2cc(Nc3ncc4ccc(-c5ccc(S(C)(=O)=O)cc5)n4n3)ccc21 [Example 373, 5-[7-(4-Methanesulfonyl-phenyl)-pyrrolo[2,1-f][1,2,4]triazin-2-ylamino]-1-methyl-1,3-dihydro-indol-2-one]
24 | 100 to 1000 | < 100 | – | – | CC(C)(C)NS(=O)(=O)c1cccc(-c2ccc3cnc(Nc4cccc(N)c4)nn23)c1 [Example 896, 3-[2-(3-Amino-phenylamino)-pyrrolo[2,1-f][1,2,4]triazin-7-yl]-N-tert-butyl-benzenesulfonamide]
25 | 100 to 1000 | < 100 | – | – | COc1ccccc1-c1ccc2cnc(Nc3ccc4c(c3)C(NC(=O)OC(C)(C)C)C(O)C4)nn12 (centres unmarked) [Example 673, {2-Hydroxy-6-[7-(2-methoxy-phenyl)-pyrrolo[2,1-f][1,2,4]triazin-2-ylamino]-indan-1-yl}-carbamic acid tert-butyl ester]
26 | – | – | 100 to 1000 | < 100 | Cc1ccc(S(=O)(=O)N(C)C)cc1-c1ccc2cnc(Nc3ccc(N4CCN(C)CC4)cc3)nn12 [Example 74, 4,N,N-Trimethyl-3-{2-[4-(4-methyl-piperazin-1-yl)-phenylamino]-pyrrolo[2,1-f][1,2,4]triazin-7-yl}-benzenesulfonamide]
27 | < 100 | < 100 | – | – | CCNS(=O)(=O)c1cccc(-c2ccc3cnc(Nc4ccc(C5CCN(C)CC5)cc4)nn23)c1 [Example 907, N-Ethyl-3-{2-[4-(1-methyl-piperidin-4-yl)-phenylamino]-pyrrolo[2,1-f][1,2,4]triazin-7-yl}-benzenesulfonamide]
28 | 1000 to 10000 | 100 to 1000 | – | – | CN1CCN(c2ncc3ccc(-c4ccccc4N(C)S(C)(=O)=O)n3n2)CC1 [Example 1250, N-Methyl-N-{2-[2-(4-methyl-piperazin-1-yl)-pyrrolo[2,1-f][1,2,4]triazin-7-yl]-phenyl}-methanesulfonamide]
